Assay results: patent US8771744B2, “Barrier composition” (Prosonix Limited, priority 2009, dated 2014)
Where a name gives a salt, the structure may show the parent alone.

Experiment: Particle size distribution (Sympatec) of spray dried, ultrasound treated particles
Type: physicochemical
Description: Preferably the active particles of the invention have a volume diameter of less than 10 μm, more preferably at least 90 wt % of the active ingredient particles in a given composition have a diameter equal to or lower than 10 μm as determined by measuring the characteristic equivalent sphere diameter, known as volume diameter, by laser diffraction as described above, preferably using a Malvern or equivalent apparatus. The parameters taken into consideration are the volume diameters (VD) in microns of 10%, 50% and 90% of the particles expressed as d(10), d(50) and d(90), respectively, which correspond to the mass diameter assuming a size independent density for the particles.
Fenoterol hydrobromide (5 g) was dissolved in 100 mL of methanol. The samples of Fenoterol hydrobromide powder collected in the ultrasonic chamber were produced using a Büchi-290 laboratory-scale spray dryer (Büchi, Switzerland). The solution was atomized using nitrogen at 7 bar flowing at approximately at 10 Lpm (Liter/minute). The aspirator was set at 100% and flow rate of solution was set to […]. The gas temperature was set to 120° C. Fenoterol hydrobromide particles were collected from both the cyclone separator and the PTFE bag filter assembly. The resultant amorphous particles contained 3000 ppm (0.3% w/w) residual methanol. The particles were placed into an ultrasonic chamber fitted with a 20 kHz ultrasonic transducer on its base (Prosonix SL 10) as shown in FIG. 8. The chamber was heated to 40° C. using a thermoregulated water jacket. Ultrasound at 20 W power was applied between 30 minutes and 2 hour. The resulting particles were characterized by optical microscopy and DSC (Differential Scanning Calorimetry). The size of the particles were typically in the range of 1-7 μm. In this specific example d(10)=0.91 μm; d(50)=1.76 μm; d(90)=3.38 μm (see FIG. 4).

[1] = spray dried particles after dry powder ultrasound treatment, FIG. 4

CC(Cc1ccc(O)cc1)NCC(O)c1cc(O)cc(O)c1 (stereo not shown) [Fenoterol hydrobromide]
size of the particles (spray dried particles after dry powder ultrasound treatment (20 kHz, 20 W, 40° C., 30 minutes to 2 hour), typical range): 1-7 μm | d(10) [1]: 0.91 μm | d(50) [1]: 1.76 μm | d(90) [1]: 3.38 μm
